{
  "source": "patent US20170095494A1",
  "about": "“Process for the Extraction of Strawberry P-Coumaroyl Hexose and/or Polyphenols, Extract and Uses Thereof” (Nutra Canada Inc., priority 2014, published 2017)",
  "origin": "cited, not measured here",
  "system": "AMPK",
  "conditions": "Bhattacharya et al, 2013, Yoon et al",
  "data": [
    {"molecule": "O=C(O)/C=C/c1ccc(O)cc1", "note": "[p-coumaric acid]", "values": [
      {"measurement": "impact on AMPK and glucose uptake in muscle cells", "result": "increased glucose uptake"}
    ]}
  ]
}
